Measurements reported in US20080161232A1, “C5a Receptor Antagonist” (JERINI AG, priority 2005, published 2008).
pIC50: −log10 of the molar value. Non-standard residues stand in square brackets, D forms with d. Residues, ends and D or L forms follow the SMILES beside them. ξ: configuration not given here. *: point of attachment. Phe(3,4-Cl2) = N[C@@H](Cc1ccc(Cl)c(Cl)c1)C(=O)O; Phe(F5) = N[C@@H](Cc1c(F)c(F)c(F)c(F)c1F)C(=O)O; Phe(2-CF3) = N[C@@H](Cc1ccccc1C(F)(F)F)C(=O)O; Phe(3,4-F2) = N[C@@H](Cc1ccc(F)c(F)c1)C(=O)O; ξTrp(6-F) = NC(Cc1c[nH]c2cc(F)ccc12)C(=O)O; Phe(3-Cl) = N[C@@H](Cc1cccc(Cl)c1)C(=O)O; Phe(4-Cl) = N[C@@H](Cc1ccc(Cl)cc1)C(=O)O; Phe(3-F) = N[C@@H](Cc1cccc(F)c1)C(=O)O; Phe(4-F) = N[C@@H](Cc1ccc(F)cc1)C(=O)O; Phe(4-Me) = Cc1ccc(C[C@H](N)C(=O)O)cc1; 1Nal = N[C@@H](Cc1cccc2ccccc12)C(=O)O; 2Nal = N[C@@H](Cc1ccc2ccccc2c1)C(=O)O; Bta = N[C@@H](Cc1csc2ccccc12)C(=O)O; d(hLeu) = CC(C)CC[C@@H](N)C(=O)O; 2Pal = N[C@@H](Cc1ccccn1)C(=O)O; β3hF = N[C@H](CC(=O)O)Cc1ccccc1; 2Thi = N[C@@H](Cc1cccs1)C(=O)O; Cha = N[C@@H](CC1CCCCC1)C(=O)O; dCha = N[C@H](CC1CCCCC1)C(=O)O; Aic = NC1(C(=O)O)Cc2ccccc2C1; Chg = N[C@H](C(=O)O)C1CCCCC1; X14 = NC(=O)N(Cc1ccccc1)N*; NMeS = CN[C@@H](CO)C(=O)O; Orn = NCCC[C@H](N)C(=O)O; tBu = CC(C)(C)*

The molecules below were run against T1, human C5aR(CD88) (Homo sapiens, UniProt P21730) (assay: Determination of the IC50 value in an enzyme release assay (functional assay, antagonistic activity)). Details: activity (group), antagonistic activity; IC50 group in enzyme release assay, RBL cells expressing human C5aR(CD88).
T1 construct: expressed in transfected cells; host or cells: rat basophilic leukemia cells (RBL)
T1 sequence (P21730 1-350): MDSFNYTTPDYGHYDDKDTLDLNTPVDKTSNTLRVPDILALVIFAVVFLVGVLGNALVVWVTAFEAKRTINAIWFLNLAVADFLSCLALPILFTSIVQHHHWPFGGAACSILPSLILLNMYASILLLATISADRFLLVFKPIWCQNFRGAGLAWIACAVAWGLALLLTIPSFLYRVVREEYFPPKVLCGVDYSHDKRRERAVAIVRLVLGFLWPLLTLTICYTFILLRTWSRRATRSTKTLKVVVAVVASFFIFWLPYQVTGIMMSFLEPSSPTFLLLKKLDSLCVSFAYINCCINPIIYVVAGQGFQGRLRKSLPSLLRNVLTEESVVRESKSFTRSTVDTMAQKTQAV
Format: cell-based

| Compound | pIC50 |
| --- | --- |
| CC(=O)N[C@@H](Cc1ccccc1)C(=O)N[C@@H](CCCN)C(=O)N1CCC[C@H]1C(=O)N[C@@H](CC1CCCCC1)C(=O)N[C@@H](Cc1csc2ccccc12)C(=O)NN(Cc1ccccc1)C(N)=O [Compound 257, Ac-Phe-Orn-Pro-Cha-Bta-NH-NBn-CO—NH2] (Ac-F[Orn]P[Cha][Bta]-X14) | 6.70 to 7.30 |

Same assay, conditions: antagonistic activity; IC50 group in enzyme release assay, RBL cells expressing human C5aR(CD88); read-out: activity (group)

| Compound | pIC50 |
| --- | --- |
| CC(=O)N[C@@H](Cc1ccccc1)C(=O)N[C@@H](CCCN)C(=O)N(C)[C@@H](CO)C(=O)N[C@H](CC1CCCCC1)C(=O)N[C@@H](Cc1csc2ccccc12)C(=O)N[C@@H](Cc1ccccc1)C(N)=O [Compound 247, Ac-Phe-Orn-NMS-cha-Bta-Phe-NH2] (Ac-F[Orn][NMeS][dCha][Bta]F-NH2) | 6.70 to 7.30 |
| CC(=O)N[C@@H](Cc1ccccc1)C(=O)N[C@@H](CCCN)C(=O)N1CCC[C@H]1C(=O)N[C@H](CC1CCCCC1)C(=O)N[C@@H](Cc1cccc2ccccc12)C(=O)N[C@@H](Cc1ccccc1)C(N)=O [Compound 248, Ac-Phe-Orn-Pro-cha-1Ni-Phe-NH2] (Ac-F[Orn]P[dCha][1Nal]F-NH2) | 6.70 to 7.30 |
| CC(=O)N[C@@H](Cc1ccccc1)C(=O)N[C@@H](CCCN)C(=O)N1CCC[C@H]1C(=O)N[C@H](CC1CCCCC1)C(=O)N[C@@H](Cc1csc2ccccc12)C(=O)N[C@@H](Cc1cccc2ccccc12)C(N)=O [Compound 249, Ac-Phe-Orn-Pro-cha-Bta-1Ni—NH2] (Ac-F[Orn]P[dCha][Bta][1Nal]-NH2) | 6.70 to 7.30 |
| CC(=O)N[C@@H](Cc1ccccc1)C(=O)N[C@@H](CCCN)C(=O)N1CCC[C@H]1C(=O)N[C@H](CC1CCCCC1)C(=O)N[C@@H](Cc1csc2ccccc12)C(=O)N[C@H](CC(N)=O)Cc1ccccc1 [Compound 250, Ac-Phe-Orn-Pro-cha-Bta-Bhf-NH2] (Ac-F[Orn]P[dCha][Bta][β3hF]-NH2) | 7.30 to 7.70 |
| CC(=O)N[C@@H](Cc1ccccc1)C(=O)N[C@@H](CCCN)C(=O)N1CCC[C@H]1C(=O)N[C@H](CC1CCCCC1)C(=O)N[C@@H](Cc1csc2ccccc12)C(=O)N[C@@H](Cc1ccc(F)c(F)c1)C(N)=O [Compound 251, Ac-Phe-Orn-Pro-cha-Bta-Dff-NH2] (Ac-F[Orn]P[dCha][Bta][Phe(3,4-F2)]-NH2) | 7.30 to 7.70 |
| CC(=O)N[C@@H](Cc1ccccc1)C(=O)N[C@@H](CCCN)C(=O)N1CCC[C@H]1C(=O)N[C@H](CC1CCCCC1)C(=O)N[C@@H](Cc1csc2ccccc12)C(=O)N[C@@H](Cc1cccc(Cl)c1)C(N)=O [Compound 254, Ac-Phe-Orn-Pro-cha-Bta-Mcf-NH2] (Ac-F[Orn]P[dCha][Bta][Phe(3-Cl)]-NH2) | 6.70 to 7.30 |
| CC(=O)N[C@@H](Cc1ccccc1)C(=O)N[C@@H](CCCN)C(=O)N1CCC[C@H]1C(=O)N[C@H](CC1CCCCC1)C(=O)N[C@@H](Cc1csc2ccccc12)C(=O)N[C@@H](Cc1cccc(F)c1)C(N)=O [Compound 255, Ac-Phe-Orn-Pro-cha-Bta-Mff-NH2] (Ac-F[Orn]P[dCha][Bta][Phe(3-F)]-NH2) | 7.70 to 8.00 |
| CC(=O)N[C@@H](Cc1ccccc1)C(=O)N[C@@H](CCCN)C(=O)N1CCC[C@H]1C(=O)N[C@H](CC1CCCCC1)C(=O)N[C@@H](Cc1csc2ccccc12)C(=O)N[C@@H](Cc1ccccn1)C(N)=O [Compound 258, Ac-Phe-Orn-Pro-cha-Bta-Opa-NH2] (Ac-F[Orn]P[dCha][Bta][2Pal]-NH2) | 6.70 to 7.30 |
| CC(=O)N[C@@H](Cc1ccccc1)C(=O)N[C@@H](CCCN)C(=O)N1CCC[C@H]1C(=O)N[C@H](CC1CCCCC1)C(=O)N[C@@H](Cc1csc2ccccc12)C(=O)N[C@@H](Cc1ccc(Cl)cc1)C(N)=O [Compound 259, Ac-Phe-Orn-Pro-cha-Bta-Pcf-NH2] (Ac-F[Orn]P[dCha][Bta][Phe(4-Cl)]-NH2) | 7.30 to 7.70 |
| CC(=O)N[C@@H](Cc1ccccc1)C(=O)N[C@@H](CCCN)C(=O)N1CCC[C@H]1C(=O)N[C@H](CC1CCCCC1)C(=O)N[C@@H](Cc1csc2ccccc12)C(=O)N[C@@H](Cc1ccc(C)cc1)C(N)=O [Compound 260, Ac-Phe-Orn-Pro-cha-Bta-Pmf-NH2] (Ac-F[Orn]P[dCha][Bta][Phe(4-Me)]-NH2) | 7.30 to 7.70 |
| CC(=O)N[C@@H](Cc1ccccc1)C(=O)N[C@@H](CCCN)C(=O)N1CCC[C@H]1C(=O)N[C@H](CC1CCCCC1)C(=O)N[C@@H](Cc1csc2ccccc12)C(=O)N[C@@H](Cc1cccs1)C(N)=O [Compound 261, Ac-Phe-Orn-Pro-cha-Bta-Thi-NH2] (Ac-F[Orn]P[dCha][Bta][2Thi]-NH2) | 7.70 to 8.00 |
| CC(=O)N[C@@H](Cc1ccccc1)C(=O)N[C@@H](CCCN)C(=O)N1CCC[C@H]1C(=O)N[C@H](CC1CCCCC1)C(=O)N[C@@H](Cc1ccccc1C(F)(F)F)C(=O)N[C@@H](Cc1ccccc1)C(N)=O [Compound 262, Ac-Phe-Orn-Pro-cha-Otf-Phe-NH2] (Ac-F[Orn]P[dCha][Phe(2-CF3)]F-NH2) | 6.70 to 7.30 |
| CC(=O)N[C@@H](Cc1ccccc1)C(=O)N[C@@H](CCCN)C(=O)N1CCC[C@H]1C(=O)N[C@H](CSC(C)(C)C)C(=O)N[C@@H](Cc1csc2ccccc12)C(=O)N[C@@H](Cc1ccccc1)C(N)=O [Compound 263, Ac-Phe-Orn-Pro-ctb-Bta-Phe-NH2] (Ac-F[Orn]P[dC](tBu)[Bta]F-NH2) | 7.30 to 7.70 |
| CC(=O)N[C@@H](Cc1ccccc1)C(=O)N[C@@H](CCCN)C(=O)N1CCC[C@H]1C(=O)N[C@H](CSC(C)(C)C)C(=O)N[C@@H](Cc1ccc(Cl)c(Cl)c1)C(=O)N[C@@H](Cc1ccccc1)C(N)=O [Compound 264, Ac-Phe-Orn-Pro-ctb-Eaa-Phe-NH2] (Ac-F[Orn]P[dC](tBu)[Phe(3,4-Cl2)]F-NH2) | 7.30 to 7.70 |
| CC(=O)N[C@@H](Cc1ccccc1)C(=O)N[C@@H](CCCN)C(=O)N1CCC[C@H]1C(=O)N[C@H](CSC(C)(C)C)C(=O)N[C@@H](Cc1cccc(Cl)c1)C(=O)N[C@@H](Cc1ccccc1)C(N)=O [Compound 265, Ac-Phe-Orn-Pro-ctb-Mcf-Phe-NH2] (Ac-F[Orn]P[dC](tBu)[Phe(3-Cl)]F-NH2) | 6.70 to 7.30 |
| CC(=O)N[C@@H](Cc1ccccc1)C(=O)N[C@@H](CCCN)C(=O)N1CCC[C@H]1C(=O)N[C@H](CSC(C)(C)C)C(=O)N[C@@H](Cc1ccc(F)cc1)C(=O)N[C@@H](Cc1ccccc1)C(N)=O [Compound 266, Ac-Phe-Orn-Pro-ctb-Pff-Phe-NH2] (Ac-F[Orn]P[dC](tBu)[Phe(4-F)]F-NH2) | 7.30 to 7.70 |
| CC(=O)N[C@@H](Cc1ccccc1)C(=O)N[C@@H](CCCN)C(=O)N1CCC[C@H]1C(=O)N[C@H](CCC(C)C)C(=O)N[C@@H](Cc1cccc2ccccc12)C(=O)N[C@@H](Cc1ccccc1)C(N)=O [Compound 268, Ac-Phe-Orn-Pro-hle-1Ni-Phe-NH2] (Ac-F[Orn]P[d(hLeu)][1Nal]F-NH2) | 7.30 to 7.70 |
| CC(=O)N[C@@H](Cc1ccccc1)C(=O)N[C@@H](CCCN)C(=O)N1CCC[C@H]1C(=O)N[C@H](CCC(C)C)C(=O)NC(Cc1c[nH]c2cc(F)ccc12)C(=O)N[C@@H](Cc1ccccc1)C(N)=O (stereo partly drawn) [Compound 269, Ac-Phe-Orn-Pro-hle-6FW-Phe-NH2] (Ac-F[Orn]P[d(hLeu)][ξTrp(6-F)]F-NH2) | 6.70 to 7.30 |
| CC(=O)N[C@@H](Cc1ccccc1)C(=O)N[C@@H](CCCN)C(=O)N1CCC[C@H]1C(=O)N[C@H](CCC(C)C)C(=O)N[C@@H](Cc1csc2ccccc12)C(=O)N[C@@H](Cc1cccc2ccccc12)C(N)=O [Compound 270, Ac-Phe-Orn-Pro-hle-Bta-1Ni—NH2] (Ac-F[Orn]P[d(hLeu)][Bta][1Nal]-NH2) | 6.70 to 7.30 |
| CC(=O)N[C@@H](Cc1ccccc1)C(=O)N[C@@H](CCCN)C(=O)N1CCC[C@H]1C(=O)N[C@H](CCC(C)C)C(=O)N[C@@H](Cc1csc2ccccc12)C(=O)N[C@@H](Cc1ccc2ccccc2c1)C(N)=O [Compound 271, Ac-Phe-Orn-Pro-hle-Bta-2Ni—NH2] (Ac-F[Orn]P[d(hLeu)][Bta][2Nal]-NH2) | 6.70 to 7.30 |
| CC(=O)N[C@@H](Cc1ccccc1)C(=O)N[C@@H](CCCN)C(=O)N1CCC[C@H]1C(=O)N[C@H](CCC(C)C)C(=O)N[C@@H](Cc1csc2ccccc12)C(=O)N[C@@H](Cc1c(F)c(F)c(F)c(F)c1F)C(N)=O [Compound 272, Ac-Phe-Orn-Pro-hle-Bta-5Ff-NH2] (Ac-F[Orn]P[d(hLeu)][Bta][Phe(F5)]-NH2) | 6.70 to 7.30 |
| CC(=O)N[C@@H](Cc1ccccc1)C(=O)N[C@@H](CCCN)C(=O)N1CCC[C@H]1C(=O)N[C@H](CCC(C)C)C(=O)N[C@@H](Cc1csc2ccccc12)C(=O)NC1(C(N)=O)Cc2ccccc2C1 [Compound 273, Ac-Phe-Orn-Pro-hle-Bta-Aic-NH2] (Ac-F[Orn]P[d(hLeu)][Bta][Aic]-NH2) | 6.70 to 7.30 |
| CC(=O)N[C@@H](Cc1ccccc1)C(=O)N[C@@H](CCCN)C(=O)N1CCC[C@H]1C(=O)N[C@H](CCC(C)C)C(=O)N[C@@H](Cc1csc2ccccc12)C(=O)N[C@@H](CC1CCCCC1)C(N)=O [Compound 274, Ac-Phe-Orn-Pro-hle-Bta-Cha-NH2] (Ac-F[Orn]P[d(hLeu)][Bta][Cha]-NH2) | 6.70 to 7.30 |
| CC(=O)N[C@@H](Cc1ccccc1)C(=O)N[C@@H](CCCN)C(=O)N1CCC[C@H]1C(=O)N[C@H](CCC(C)C)C(=O)N[C@@H](Cc1csc2ccccc12)C(=O)N[C@H](C(N)=O)C1CCCCC1 [Compound 275, Ac-Phe-Orn-Pro-hle-Bta-Chg-NH2] (Ac-F[Orn]P[d(hLeu)][Bta][Chg]-NH2) | 6.70 to 7.30 |
| CC(=O)N[C@@H](Cc1ccccc1)C(=O)N[C@@H](CCCN)C(=O)N1CCC[C@H]1C(=O)N[C@H](CCC(C)C)C(=O)N[C@@H](Cc1csc2ccccc12)C(=O)N[C@@H](Cc1ccc(Cl)c(Cl)c1)C(N)=O [Compound 276, Ac-Phe-Orn-Pro-hle-Bta-Eaa-NH2] (Ac-F[Orn]P[d(hLeu)][Bta][Phe(3,4-Cl2)]-NH2) | 6.70 to 7.30 |
